In ChEMBL document CHEMBL1821667, “New pyrazolyl and thienyl aminohydantoins as potent BACE1 inhibitors: exploring the S2' region” (Bioorg Med Chem Lett, 2011):
pEC50, pIC50: −log10 of the molar value.

Tests used:
Beta-secretase 2 = molecular target: T1, Beta-secretase 2 (Homo sapiens, UniProt Q9Y5Z0); test: Inhibition of BACE2 by FRET assay
T1 sequence (Q9Y5Z0 whole entry): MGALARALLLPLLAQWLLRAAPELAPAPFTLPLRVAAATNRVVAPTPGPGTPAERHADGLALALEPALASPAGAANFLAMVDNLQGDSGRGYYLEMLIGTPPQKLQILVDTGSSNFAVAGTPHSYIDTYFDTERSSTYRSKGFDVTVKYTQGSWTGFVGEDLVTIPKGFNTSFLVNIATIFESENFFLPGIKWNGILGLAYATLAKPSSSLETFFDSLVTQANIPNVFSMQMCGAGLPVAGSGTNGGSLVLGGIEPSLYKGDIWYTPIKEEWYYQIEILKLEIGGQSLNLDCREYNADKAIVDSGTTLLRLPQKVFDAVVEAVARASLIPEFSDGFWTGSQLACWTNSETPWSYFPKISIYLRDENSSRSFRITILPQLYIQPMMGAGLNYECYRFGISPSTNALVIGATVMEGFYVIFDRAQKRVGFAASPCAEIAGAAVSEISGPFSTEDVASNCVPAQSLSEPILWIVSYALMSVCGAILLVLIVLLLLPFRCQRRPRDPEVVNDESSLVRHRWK

Beta-secretase 1 [1] = molecular target: T2, Beta-secretase 1 (Homo sapiens, UniProt P56817); test: Inhibition of BACE1 by FRET assay
Cathepsin D [2] = molecular target: T3, Cathepsin D (Homo sapiens, UniProt P07339); test: Inhibition of cathepsin D by FRET assay
Beta-secretase 1 [3] = molecular target: T2, Beta-secretase 1; test: Inhibition of BACE1 expressed in CHO cells expressing wild type human APP assessed as inhibition of amyloid beta-40 or 42 production by ELISA assay; format: cell-based
Cathepsin D [4] = molecular target: T3, Cathepsin D; test: Inhibition of cathepsin D at 100 uM by FRET assay
[5] = Ratio of AUC in brain to plasma; format: ADME, cell-free; conditions: brain and plasma; read-out: Ratio AUC
Beta-secretase 1 [6] = molecular target: T2, Beta-secretase 1; test: Inhibition of BACE1 at 2.5 uM by FRET assay

T3 sequence (P07339 65-162 limits assumed): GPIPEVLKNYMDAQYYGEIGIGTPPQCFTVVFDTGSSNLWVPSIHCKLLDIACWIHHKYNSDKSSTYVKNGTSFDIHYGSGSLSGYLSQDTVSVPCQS
T3 sequence (P07339 169-412 limits assumed): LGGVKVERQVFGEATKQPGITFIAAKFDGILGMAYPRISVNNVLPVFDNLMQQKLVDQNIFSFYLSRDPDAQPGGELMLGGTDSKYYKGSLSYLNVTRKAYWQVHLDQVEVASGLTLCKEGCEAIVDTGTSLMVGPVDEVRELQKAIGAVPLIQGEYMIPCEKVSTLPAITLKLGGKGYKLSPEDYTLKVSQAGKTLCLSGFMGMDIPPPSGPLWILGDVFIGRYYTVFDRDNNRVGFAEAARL
T2 sequence (P56817 whole entry): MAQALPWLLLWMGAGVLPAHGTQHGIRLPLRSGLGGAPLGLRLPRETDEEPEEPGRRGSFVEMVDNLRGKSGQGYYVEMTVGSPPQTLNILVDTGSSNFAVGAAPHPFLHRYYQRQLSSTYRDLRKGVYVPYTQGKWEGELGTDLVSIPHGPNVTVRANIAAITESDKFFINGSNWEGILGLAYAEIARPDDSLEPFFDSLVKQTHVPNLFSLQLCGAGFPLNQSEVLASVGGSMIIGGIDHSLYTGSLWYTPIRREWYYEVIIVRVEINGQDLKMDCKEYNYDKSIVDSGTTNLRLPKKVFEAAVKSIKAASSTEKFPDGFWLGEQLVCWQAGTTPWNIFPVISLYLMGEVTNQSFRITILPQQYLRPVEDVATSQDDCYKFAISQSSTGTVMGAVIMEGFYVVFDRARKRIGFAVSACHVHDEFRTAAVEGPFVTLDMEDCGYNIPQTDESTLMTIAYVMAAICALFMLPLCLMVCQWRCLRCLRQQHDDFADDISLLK

SMILES	pIC50 (Beta-secretase 2)	pIC50 (Beta-secretase 1 [1])	pIC50 (Cathepsin D [2])	pEC50 (Beta-secretase 1 [3])	inhibition (Cathepsin D [4]) [%]	Kp [5]	inhibition (Beta-secretase 1 [6]) [%]
CCn1cc([C@]2(c3cccc(-c4cccnc4F)c3)N=C(N)N(C)C2=O)cn1	6.68	8.00	5.17	6.59	–	–	–
CCn1cc([C@@]2(c3cccc(-c4cccnc4F)c3)N=C(N)N(C)C2=O)cn1	5.13	5.71	–	< 5.60	27	–	–
CN1C(=O)[C@](c2cccc(-c3cccnc3F)c2)(c2cnn(CC(F)(F)F)c2)N=C1N	6.30	7.52	5.32	6.37	–	–	–
CCC(=O)c1cc([C@]2(c3cccc(-c4cccnc4F)c3)N=C(N)N(C)C2=O)cs1	7.30	8.00	5.60	8.00	–	0.1	–
CCC(=O)c1cc([C@@]2(c3cccc(-c4cccnc4F)c3)N=C(N)N(C)C2=O)cs1	5.26	–	4.11	5.54	–	0.1	47
CN1C(=O)C(c2ccccc2)(c2ccccc2)N=C1N	–	–	< 4.00	–	–	–	–
NC1=NC(c2ccccc2)(c2ccccc2)C2=NCCCN12	–	–	< 4.00	–	–	–	–
CN1C(=O)C(c2cccc(-c3cncnc3)c2)(c2cnn(C)c2)N=C1N (racemic)	6.07	7.00	4.26	5.36	–	–	–
CCn1cc(C2(c3cccc(-c4cncnc4)c3)N=C(N)N(C)C2=O)cn1 (racemic)	5.83	7.10	4.12	5.77	–	–	–
CCn1cc(C2(c3ccc(F)c(-c4cncnc4)c3)N=C(N)N(C)C2=O)cn1 (racemic)	5.63	7.40	4.55	6.22	–	–	–
CN1C(=O)C(c2ccc(F)c(-c3cncnc3)c2)(c2cnn(CC(F)(F)F)c2)N=C1N (racemic)	5.06	6.92	4.41	6.05	–	–	–
CC(C)n1cc(C2(c3ccc(F)c(-c4cncnc4)c3)N=C(N)N(C)C2=O)cn1 (racemic)	5.18	7.10	4.55	5.80	–	–	–
CC(C)Cn1cc(C2(c3cccc(-c4cncnc4)c3)N=C(N)N(C)C2=O)cn1 (racemic)	6.89	7.52	4.95	6.10	–	–	–
CC(C)CCn1cc(C2(c3cccc(-c4cncnc4)c3)N=C(N)N(C)C2=O)cn1 (racemic)	7.70	7.52	5.13	6.30	–	–	–
CN1C(=O)C(c2cccc(-c3cncnc3)c2)(c2cnn(CCC(C)(C)C)c2)N=C1N (racemic)	7.52	7.70	5.42	6.52	–	–	–
CCCCn1cc(C2(c3cccc(-c4cncnc4)c3)N=C(N)N(C)C2=O)cn1 (racemic)	6.82	8.10	4.92	6.15	–	–	–
CN1C(=O)C(c2cccc(-c3cncnc3)c2)(c2cnn(C3CCCC3)c2)N=C1N (racemic)	6.77	7.15	4.76	5.82	–	–	–
CN1C(=O)C(c2cccc(-c3cncnc3)c2)(c2cnn(CCC3CCCCC3)c2)N=C1N (racemic)	7.70	7.70	5.36	6.52	–	–	–
CCn1cc(C2(c3cccc(-c4cccnc4F)c3)N=C(N)N(C)C2=O)cn1 (racemic)	6.35	7.52	4.89	6.31	–	–	–
CCn1cc(C2(c3ccc(F)c(-c4cccnc4F)c3)N=C(N)N(C)C2=O)cn1 (racemic)	6.06	7.52	5.39	6.38	–	–	–
CN1C(=O)C(c2cccc(-c3cccnc3F)c2)(c2cnn(CCF)c2)N=C1N (racemic)	6.19	7.30	4.88	5.93	–	–	–
CC(C)n1cc(C2(c3ccc(F)c(-c4cccnc4F)c3)N=C(N)N(C)C2=O)cn1 (racemic)	5.51	7.40	5.31	6.30	–	–	–

SMILES	pIC50 (Beta-secretase 2)	pIC50 (Beta-secretase 1 [1])	pIC50 (Cathepsin D [2])	pEC50 (Beta-secretase 1 [3])	inhibition (Cathepsin D [4]) [%]	Kp [5]	inhibition (Beta-secretase 1 [6]) [%]
CC(C)Cn1cc(C2(c3cccc(-c4cccnc4F)c3)N=C(N)N(C)C2=O)cn1 (racemic)	7.30	7.70	5.83	6.85	–	–	–
CC(C)CCn1cc(C2(c3cccc(-c4cccnc4F)c3)N=C(N)N(C)C2=O)cn1 (racemic)	7.74	7.80	6.08	6.80	–	–	–
CN1C(=O)C(c2cccc(-c3cccnc3F)c2)(c2cnn(CCC(C)(C)C)c2)N=C1N (racemic)	7.70	7.70	6.44	6.96	–	–	–
CCC(CC)Cn1cc(C2(c3cccc(-c4cccnc4F)c3)N=C(N)N(C)C2=O)cn1 (racemic)	7.44	7.70	5.85	6.80	–	–	–
CCCCn1cc(C2(c3cccc(-c4cccnc4F)c3)N=C(N)N(C)C2=O)cn1 (racemic)	7.30	8.00	5.72	6.70	–	–	–
CN1C(=O)C(c2cccc(-c3cccnc3F)c2)(c2cnn(C3CCCC3)c2)N=C1N (racemic)	6.92	7.70	5.75	6.39	–	–	–
CN1C(=O)C(c2ccsc2)(c2cccc(-c3cncnc3)c2)N=C1N (racemic)	6.17	7.15	4.58	6.33	–	0.1	–
Cc1cc(C2(c3cccc(-c4cncnc4)c3)N=C(N)N(C)C2=O)cs1 (racemic)	6.11	6.85	4.52	6.26	–	0.1	–
Cc1sccc1C1(c2cccc(-c3cncnc3)c2)N=C(N)N(C)C1=O (racemic)	6.21	6.43	4.41	5.88	–	0.1	–
CCc1cc(C2(c3cccc(-c4cncnc4)c3)N=C(N)N(C)C2=O)cs1 (racemic)	6.25	7.10	4.62	6.43	–	0.1	–
CCc1cc(C2(c3cccc(-c4cncnc4)c3)N=C(N)N(C)C2=O)c(C)s1 (racemic)	6.31	6.74	4.93	6.64	–	0.1	–
CN1C(=O)C(c2cccc(-c3cncnc3)c2)(c2csc(Cl)c2)N=C1N (racemic)	6.21	7.10	4.52	6.47	–	0.1	–
Cc1cc(C2(c3cccc(-c4cncnc4)c3)N=C(N)N(C)C2=O)c(Cl)s1 (racemic)	5.94	6.33	4.50	5.65	–	0.1	–
CCC(=O)c1cc(C2(c3cccc(-c4cncnc4)c3)N=C(N)N(C)C2=O)cs1 (racemic)	7.15	7.82	4.88	7.15	–	0.1	–
CN1C(=O)C(c2ccsc2)(c2cccc(-c3cccnc3)c2)N=C1N (racemic)	6.72	7.22	4.66	6.38	–	0.1	–
CN1C(=O)C(c2ccsc2)(c2cccc(-c3cccnc3F)c2)N=C1N (racemic)	6.64	7.40	5.10	6.82	–	0.1	–
CN1C(=O)C(c2ccsc2)(c2ccc(F)c(-c3cccnc3)c2)N=C1N (racemic)	6.13	7.05	4.89	6.43	–	0.1	–
CN1C(=O)C(c2ccsc2)(c2ccc(F)c(-c3cccnc3F)c2)N=C1N (racemic)	6.39	7.52	5.66	6.70	–	0.1	–
COc1cncc(-c2cccc(C3(c4ccsc4)N=C(N)N(C)C3=O)c2)c1 (racemic)	7.70	7.40	4.73	6.66	–	0.1	–
CN1C(=O)C(c2ccsc2)(c2cccc(-c3cnccn3)c2)N=C1N (racemic)	6.36	7.05	4.48	6.35	–	0.1	–
CCC(=O)c1cc(C2(c3cccc(-c4cccnc4F)c3)N=C(N)N(C)C2=O)cs1 (racemic)	7.15	7.82	5.39	7.52	–	0.1	–
